Values of other authors, collected in PMC8198792, “Prediction of Anticancer Peptides with High Efficacy and Low Toxicity by Hybrid Model Based on 3D Structure of Peptides” (International Journal of Molecular Sciences, 2021).
Like-named read-outs stand apart in the source and are kept apart here.

Assays:
[1] = system: cancer cell lines; parameters: method as in 6 sources, ref CancerPPD [45] and SATPdb ||| ref CancerPPD/SATPdb ||| ref CancerPPD, SATPdb, Swissprot (PDB) ||| ref CancerPPD/SATPdb/Swissprot(PDB) ||| ref CancerPPD / SATPdb ||| ...; settings: cited from earlier work
Excerpt: Supplement ijms-22-05630-s001.zip/ACPs(seguence).xlsx, sheet "D1" | column: Activity || Supplement ijms-22-05630-s001.zip/ACPs(seguence).xlsx, sheet "D2" | column: Activity || Supplement ijms-22-05630-s001.zip/ACPs(seguence).xlsx, sheet "D3" | column: Activity || (+ 2 further places)

[2] = system: erythrocytes; settings: cited from earlier work
Excerpt: Supplement ijms-22-05630-s001.zip/Hemloytic Peptides(seguence).xlsx, sheet "HD1" | column: Activity || Supplement ijms-22-05630-s001.zip/Hemloytic Peptides(seguence).xlsx, sheet "HD2" | column: Activity || Supplement ijms-22-05630-s001.zip/Hemloytic Peptides(seguence).xlsx, sheet "HD3" | column: Activity

[3] = ACPs dataset D3 (supplement sheet "D3"), 1 = ACP, 0 = non-ACP, ref CancerPPD [45] and SATPdb
[4] = ACPs dataset D4 (sheet "D4"), label 1 = ACP, 0 = non-ACP, ref CancerPPD / SATPdb
[5] = ACPs dataset D5, sheet "D5", label 1 = ACP, 0 = non-ACP, ref CancerPPD [45] and SATPdb
[6] = ACPs dataset D4 (sheet "D4"), label 1 = ACP (CancerPPD ID), 0 = non-ACP (non-anticancer AMP, SATPdb ID), ref CancerPPD [45] and SATPdb
[7] = hemolytic peptides dataset HD3, 1 = hemolytic (positive set), 0 = non-hemolytic (negative set), labels taken from databases, ref Hemolytik/SATPdb
[8] = natural hemolytic peptide dataset HD1, label collected from databases, ref Hemolytik [49], SATPdb [34]
[9] = ACPs dataset D1, label 1 = ACP, 0 = non-ACP (non-anticancer AMPs from SATPdb), ref CancerPPD/SATPdb
[10] = ACPs dataset D3 (sheet "D3"), label 1 = ACP, 0 = non-ACP, ref CancerPPD/SATPdb
[11] = Hemolytic peptides dataset HD2, label 1 = hemolytic, 0 = non-hemolytic, ref Hemolytik/SATPdb

Substance	Activity [2]	Activity (dataset HD1, hemolytic 1 / non-hemolytic 0) [2]	further results
AKKVFKRLEKLFSKIQNDK [satpdb11343]	0	–	Activity [1, 3]: 0; Activity [1, 4]: 0; Activity [1, 5]: 0
AKKVFKRLGIGAVLWVLTWG [satpdb10183]	–	–	Activity ([1]; ACPs dataset D1, 1 = ACP (positive), 0 = non-ACP (negative), label taken from databases, ref CancerPPD [45] and SATPdb): 0; Activity [1, 6]: 0; Activity [2, 7]: 1; Activity (dataset HD1, hemolytic 1 / non-hemolytic 0) [2, 8]: 1
ALPLIGRVLSGIL [satpdb11361]	1	–	Activity [1, 3]: 0; Activity [1, 4]: 0; Activity [1, 5]: 0
ALWFTMLKKLGTMALHAGKAALGAAANTISQGTQ [satpdb13357]	1	1	Activity [1, 9]: 0; Activity [1, 4]: 0
CGESCVFIPCISTLLGCSCKNKVCYRNGVIP [satpdb11124]	–	–	Activity [1, 9]: 0; Activity [1, 6]: 0; Activity [2, 7]: 1; Activity (dataset HD1, hemolytic 1 / non-hemolytic 0) [2, 8]: 1
CGESCVWIPCTITALAGCKCKSKVCYNSIP [satpdb10149]	–	–	Activity [1, 9]: 0; Activity [1, 6]: 0; Activity [2, 7]: 1; Activity (dataset HD1, hemolytic 1 / non-hemolytic 0) [2, 8]: 1
CIAKGNGCQPSGVQGNCCSGHCHKEPGWVAGYCK [satpdb13088]	–	–	Activity [1, 10]: 0; Activity [1, 4]: 0; Activity [1, 5]: 0; Activity [2, 11]: 0; Activity [2, 7]: 0
DAACAAKCLWR [satpdb10773]	–	–	Activity [1, 3]: 0; Activity [1, 4]: 0; Activity [1, 5]: 0; Activity [2, 11]: 0; Activity [2, 7]: 0
DVNDLKNLCAKTHNLLPMCAMF [satpdb13885]	0	–	Activity [1, 10]: 0; Activity [1, 4]: 0; Activity [1, 5]: 0
DYDWSLRGPPKCATYGQKCRTWSPPNCCWNLRCKAFRCRPR [satpdb13169]	–	–	Activity [1, 9]: 0; Activity [1, 4]: 0; Activity [2, 7]: 1; Activity (dataset HD1, hemolytic 1 / non-hemolytic 0) [2, 8]: 1
KWKLFKKIPKFLHL [satpdb16155]	0	–	–
KWKLFKKIPKFLHLAK [satpdb17849]	–	–	Activity [2, 11]: 0; Activity [2, 7]: 0
KWKLFKKIPKFLHLAKKF [compound 2405]	–	–	Activity [2, 11]: 0; Activity [2, 7]: 0
KWKLFKKIPKFLHSAKKF [satpdb25981]	0	–	–
KWKLFKKIPLAKKF [satpdb27289]	0	–	–
KWKLKPLLKKLLKKL [satpdb10408]	0	–	–
KWKSFLKTFKSAKKKVLHTALKAISS [satpdb11775]	1	–	–
KWKSFLKTFKSLKKTVLHTLLKAISS [satpdb11586]	1	–	–
KWKSFLKTFKSlKKTVLHTlLKAISS [satpdb12638]	–	–	Activity [2, 11]: 1; Activity [2, 7]: 1
KWKSFLKTLKSPVKTVFYTALKPISS [satpdb14675]	–	–	Activity [2, 7]: 1; Activity (dataset HD1, hemolytic 1 / non-hemolytic 0) [2, 8]: 1
KWKSFLRTFKSPVRTVFHTALKPISS [satpdb15241]	1	1	–
KWKSFLkTFKSLKKTVLHTLLKAISS [satpdb10544]	1	–	–
KWKWKW [satpdb24601]	0	–	–
KWLKKWL [satpdb27612]	0	–	–
KWLRRVWRWWR [satpdb13727]	1	–	–

Substance	Activity [2]	Activity (dataset HD1, hemolytic 1 / non-hemolytic 0) [2]	further results
LKDVEEAQQKIINIIRRL [satpdb22186]	0	–	–
LKKWLKKWLKK [satpdb15781]	0	–	–
LKLFKKILKFL [satpdb12214]	1	–	–
LKLFKKILKYL [satpdb12465]	1	–	–
LLKKLLKWLKK [satpdb11747]	1	–	–
LLLKLLKLLLKLLLKLLK [compound 3688]	1	–	–
LRQSQFVGSR [satpdb22092]	0	–	–
LRRLWLRANRL [satpdb19164]	0	0	–
LVRGCWTKSYPPKPCFVR [satpdb11737]	1	1	–
MAFKKLEKVGRNIRDGIIKAGPAVAVIGQATSIARPTGK [satpdb16695]	0	0	–
PKLKTFLSKWIG [satpdb28564]	0	0	–
PKLLKFLSKWIG [satpdb11566]	1	1	–
PKLLKTFLKWIG [satpdb11234]	1	1	–
QADFQKVVAGVANALAHRYH [satpdb25830]	0	0	–
QKAVLDCLKAAGSSLSKAAITAI [satpdb19403]	0	0	–
QLQGKQVSGEVVQKVLQELIQSVAKP [satpdb28356]	0	0	–
QRSVSNAATRVSRTGRSRWRDVSRNFMRR [satpdb24123]	0	0	–
QSRVIQGLVAGETAQQICED [satpdb27946]	0	0	–
QTRRLTYKpRTVTYTRGR [satpdb13569]	1	–	–
RAGLQFPVGRLLRRLLR [satpdb15223]	0	0	–
RFGRFLRKIRRFRPK [satpdb23150]	0	0	–
RGGRLAYCRRRFCVAVGR [satpdb25189]	0	–	–
RGLRRLGRKIAHGVKKYGPTVKRIKRKA [satpdb15155]	0	–	–
RIIDLLWRVRRPQKPKFVTVWVR [satpdb14815]	0	0	–
RRGWALRLVLAY [satpdb14852]	1	1	–

Substance	Activity [2]	Activity (dataset HD1, hemolytic 1 / non-hemolytic 0) [2]	further results
RRGWVLALYLRYGRR [satpdb15589]	1	1	–
RRLMAAKAESRK [satpdb23556]	0	0	–
RRRAAFAAWAAFAARRR [satpdb23563]	0	–	–
RWKIFKKIEKVGRNVRDGIIKAGPAVAVVGQAATVVKG [satpdb26767]	–	–	Activity [2, 7]: 0; Activity (dataset HD1, hemolytic 1 / non-hemolytic 0) [2, 8]: 0
RWRSFFKKAAHRGKHVGKRARTHYL [satpdb15888]	0	–	–
SFFKKAAHVGKHVGKAALTHYL [satpdb17678]	0	–	–
SFHVFPPWMCKSLKKC [satpdb22093]	0	0	–
SFPFFPPGICKRLKRC [satpdb23345]	0	0	–
SWSSFFKKAAHSGKHVGKSASTHYL [satpdb15741]	0	–	–
TGRAKRRMQYNRR [satpdb25092]	0	0	–
VGKTWIKVIRGIGKSKIKWQ [satpdb28870]	0	0	–
VIPFVASVAAEMMHHVYCAASKRC [satpdb16460]	1	1	–
VKLKVyPLKVKlyP [satpdb11392]	–	–	Activity [2, 11]: 1; Activity [2, 7]: 1
VLSAADKGNVKAAWGKVGGHAAE [satpdb26597]	0	0	–
VRRFPAAAPFLRR [satpdb24534]	0	0	–
VRRFPFFFPFLRR [satpdb22709]	0	0	–
WKKIPKFLHLAKKF [satpdb14752]	0	–	–
WLKKW [satpdb27168]	–	–	Activity [2, 11]: 0; Activity [2, 7]: 0
WLLKW [satpdb27330]	–	–	Activity [2, 11]: 0; Activity [2, 7]: 0
WNPFKELERAGQRVRDAIISAAP [satpdb17819]	0	0	–
WYLTLTLGYGRR [satpdb16552]	1	1	–
WYSEMKRNVQRLERAIEE [satpdb11990]	1	–	–
fPOVO [satpdb21927]	–	–	Activity [2, 11]: 0; Activity [2, 7]: 0
kWkSFLkTFkSLKkTVLHTLLkAISS [satpdb10734]	–	–	Activity [2, 11]: 1; Activity [2, 7]: 1
